US20120269815A1, “NEUROTROPHINS AND USES THEREOF” (Regents of the University of Minnesota, priority 2008, published 2012)
No end group written: not given here.

Tests used:
[1] = Shock sensitization of startle after ICV TUF1 peptide infusion; format: in vivo, rat; conditions: adult male rats, 1.0 μg or 10 μg ICV
Procedure: a) Intra-cerebroventricular (ICV) Cannulation Male Sprague-Dawley rats weighing 250-400 grams were anesthetized with ketamine (100 mg/kg) and xylazine (7 mg/kg) and placed in a stereotaxic device (David Kopf Instruments Corp., Tunjunga, Calif.) using atraumatic ear bars. An incision of the skin overlying the skull was made and anchor screws were inserted into the skull. Burr holes were drilled to allow the guide cannula to pass into the brain. The guide cannula (22-gauge, C313G; Plastics One, Roanoke, Va.) was placed at 0 mm posterior, 1.2 mm lateral and 3.5 mm ventral to bregma. The cannula was affixed using epoxy glue (Loctite 444; McMaster-Carr, Chicago, Ill.) followed by dental acrylic (Hygienic perm reline & repair resin, Type II, Class I; Henry Schein, Inc., Melville, N.Y.). The cannula was sealed and kept open by insertion of a ‘dummy’ cannula. […]
For fear potentiated startle, shock sensitization, and prepulse inhibition testing, animals were trained and tested in four identical 7.5 cm×9 cm×17 cm stabilimeter devices. […] Shock intensity was measured with a 1-kΩ resistor across a differential channel of an oscilloscope in series with a 100-kΩ resistor connected between two floor bars in each cage. Current was defined as the RMS voltage across the resistor and calculated in mA as 0.707×0.5 ×peak-to-peak voltage. […]

[2] = system: primary culture hypothalamic neurons; assay: Activated-Caspase 3 expression in serum-deprived primary cultured hypothalamic neurons; format: cell-based, mouse; conditions: 48-hour serum deprivation; 50 nM TUF1[43-54] or 500 ng/ml anti-TUF1[43-54] IgG; preliminary qualitative analysis
Procedure: Gestational day 16.5 mouse embryos were collected from deeply anesthetized pregnant dam (i.p. injection of 10 mg/Kg Beuthanasia). Embryos were placed in HAM F12+10% Fetal Calf Serum (FCS)+1 mg/ml glucose. Whole brains were dissected and placed in a dish containing Phosphate Buffer Saline (PBS)+1 mg/ml glucose+10 mM HEPES. Hypothalami were dissected from embryonic brains and placed into a conical tube containing 2 ml HAM F12+10 mg/ml Glucose+10 mM HEPES. Cells were dissociated by pipetting and then centrifuged at 200×g for 5 minutes. Cells were suspended in culture medium (HAM F12+10% FCS+10 mg/ml glucose+10 mM HEPES+[…]) and plated at 200,000 cells/25 mm flask. Plated cells were incubated for four days in humidified incubator maintained at 37° C. and 5% CO2 (NuAire NU-8600, NuAire, Inc., Plymouth, Minn.).
To gain insight into the survival effect of TUF1[43-54] polypeptide, serum deprivation was used as a stressor. […] Cells were assessed for activated-Caspase 3 expression by immunocytochemistry after 48-hour incubation.
Cultured cells were rinsed with PBS (2×), fixed with 4% Paraformaldehyde (5 minutes) and permeabilized with PBS+0.1% Tween-20 (PBST). […] Excess antibody was removed by PBST and labeled cells were detected using IMMPACT DAB chromogen (Vector Laboratories, Inc., Burlingame, Calif.) per manufacturer's recommendation.

In the case of AYKSYVRALPLL [TUF1[43-54]], the shock sensitization [1] was “No effect” and the “cell death (activated-Caspase 3) following serum-deprivation” value [2] was “fewer cell death”.
